Laboratory results published in patent US20190231787A1, “METHODS AND COMPOUNDS FOR TREATING ALCOHOL USE DISORDERS AND ASSOCIATED DISEASES” (PHARMATROPHIX, INC., priority 2016, published 2019).
Entries after “also recorded” stand apart in the source; their conditions may differ.

B1: BDNF: Brain-derived neurotrophic factor; Human BDNF was purchased from Sigma-Aldrich (protein, UniProt P23560 19-247, looked up)
Neurotrophic factor BDNF …: APMKEANIRGQGGLAYPGVRTHGTLESVNGPKAGSRGLTSLADTFEHVIEELLDEDQKVRPNEENNKDADLYTSRVMLSSQVPLEPPLLFLLEEYKNYLDAANMSMRVRRHSDPARRGELSVCDSISEWVTAADKKTAVDMSGGTVTVLEKVPVSKGQLKQYFYETKCNPMGYTKEGCRGIDKRHWNSQCRTTQSYVRALTMDSKKRIGWRFIRIDTSCVCTLTIKRGR

Key:
p75NTR [1] = target: T1, p75NTR (Rattus norvegicus, UniProt P07174); test: Intermittent access to 20% alcohol 2BC (IA20%-2BC) binge drinking after intra-DLS infusion of LM11A-31; format: in vivo; settings: intra-DLS LM11A-31 30 μg/1 μl per side, vs vehicle
T1 construct: from tissue; host or cells: dorsolateral striatum (DLS) of living rats
T1 sequence (P07174 30-425): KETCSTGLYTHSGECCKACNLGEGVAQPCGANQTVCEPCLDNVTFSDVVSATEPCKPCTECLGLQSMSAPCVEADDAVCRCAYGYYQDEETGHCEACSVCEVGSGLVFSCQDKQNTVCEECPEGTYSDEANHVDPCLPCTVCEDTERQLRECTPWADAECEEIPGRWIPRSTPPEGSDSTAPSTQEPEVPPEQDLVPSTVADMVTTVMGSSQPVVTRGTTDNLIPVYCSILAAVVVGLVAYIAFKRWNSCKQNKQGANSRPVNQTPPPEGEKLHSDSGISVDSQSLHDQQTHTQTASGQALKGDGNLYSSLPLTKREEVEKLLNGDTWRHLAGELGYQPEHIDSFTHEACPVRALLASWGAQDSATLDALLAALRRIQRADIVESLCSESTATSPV
Procedure: (§1) At 8 weeks of age, animals were given 24 hours of access to one bottle of 20% alcohol (v/v) and one bottle of tap water concurrently for a total of 21 sessions of 24 hours during a period of 7 weeks. Drinking sessions started at 12:00 P.M. on Monday, Wednesday, and Friday, with 24 or 48 hours (weekend) of alcohol deprivation between the drinking sessions. The water and alcohol bottles were weighed before the beginning of each drinking session, immediately after the first 30 minutes of access to alcohol and at the end of the session. Rats with escalation of alcohol consumption from session 1 to session 18, reaching a baseline of drinking that was higher than 3.5 g/kg/24 h, were selected for the studies.
(§2) Cannula implantation and microinfusions of BDNF and LM11A-31. Four holes were drilled for screws, and two holes were drilled for cannulae implantation (single cannula, C315GA; PlasticsOne). The coordinates for the DLS were +1.2 mm anterior to Bregma and 3.5 mm lateral to the medial suture. The cannulae were implanted into the lateral part of the dorsal striatum (−4.2 mm from the skull surface) and fixed with dental cement. After 1 week of recovery, the alcohol-drinking procedure resumed, and subjects were habituated to the microinjection procedure with two sham injections (injectors were lowered but no infusion took place). […]

p75NTR [2] = target: T1, p75NTR; test: Intermittent access to 1% sucrose 2BC after intra-DLS administration of LM11A-31; format: in vivo; settings: intra-DLS LM11A-31 30 μg/μl; IA-2BC 1% sucrose, 30 min; vs vehicle
Procedure: (§3) The procedure was similar to the IA20%-2BC paradigm described above, except that a sucrose (1%) solution was substituted for alcohol. Rats were tested for sucrose intake in response to intra-DLS administration of LM11A-31 or vehicle 1 week after the conclusion of the alcohol-drinking study. Animals were trained to drink sucrose for 2 weeks before the test day. An independent cohort of rats underwent IA-2BC sucrose-drinking paradigm for 7 weeks before systemic administration of LM11A-31.
as §2, with “place). The experimental microinfusions began after each rat reacquired a stable level of drinking. BDNF, LM11A-31, or PBS was infused via a 25 μl Hamilton syringe (#1702), 3 h (BDNF) or 2 h (LM11A-31) before the beginning of the alcohol-drinking session.” for “place).”

p75NTR [3] = target: T1, p75NTR; test: IA20%-2BC binge drinking after systemic (intraperitoneal) administration of LM11A-31; format: in vivo; settings: 30 min
Procedure: as §1
Before the beginning of experiments, rats were habituated for 3 days to intraperitoneal administration by daily injections of saline (0.9% NaCl). LM11A-31 (50-150 mg/kg) or vehicle (0.9% saline) was administered intraperitoneally 2 hours before the beginning of the drinking session. Test days occurred once a week, with two alcohol-drinking sessions without treatment that were performed between injections to allow intake to return to baseline. For the highest dose of LM11A-31, vehicle and drug were tested in different animals. […]

p75NTR [4] = target: T1, p75NTR; test: IA-2BC 1% sucrose drinking after systemic administration of LM11A-31; format: in vivo; settings: LM11A-31 150 mg/kg systemic; IA 1% sucrose 2BC 7 weeks; 30 min access
Procedure: as §3
Before the beginning of experiments, rats were habituated for 3 days to intraperitoneal administration by daily injections of saline (0.9% NaCl). LM11A-31 (50-150 mg/kg) or vehicle (0.9% saline) was administered intraperitoneally 2 hours before the beginning of the drinking session. Test days occurred once a week, with two alcohol-drinking sessions without treatment that were performed between injections to allow intake to return to baseline. For the highest dose of LM11A-31, vehicle and drug were tested in different animals.
To test whether systemic administration of LM11A-31 attenuates binge drinking of sucrose, rats had IA to 1% sucrose in a 2BC paradigm for 7 weeks, and sucrose consumption was measured after 30 min access following LM11A-31 injection.

p75NTR [5] = target: T2, p75NTR (Homo sapiens, UniProt P08138); settings: Massa et al., 2006; Longo and Massa, 2013; cited from earlier work
T2 sequence (P08138 29-427): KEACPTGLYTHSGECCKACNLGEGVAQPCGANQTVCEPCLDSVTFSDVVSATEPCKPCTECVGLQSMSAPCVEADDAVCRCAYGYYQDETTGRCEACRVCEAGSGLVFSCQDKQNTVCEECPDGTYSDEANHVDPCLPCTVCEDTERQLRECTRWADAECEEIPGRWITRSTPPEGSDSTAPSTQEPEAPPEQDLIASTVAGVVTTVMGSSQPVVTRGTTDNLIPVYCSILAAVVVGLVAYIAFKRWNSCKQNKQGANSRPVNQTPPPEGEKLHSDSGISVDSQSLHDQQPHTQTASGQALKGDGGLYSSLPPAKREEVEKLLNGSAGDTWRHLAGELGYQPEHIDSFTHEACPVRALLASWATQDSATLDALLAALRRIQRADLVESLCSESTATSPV

[6] = tested on: p75NTR-mediated neuronal death; settings: Knowles et al., 2013, Tep et al.; cited from earlier work
Jun kinase = settings: Shi et al., 2013; cited from earlier work
[7] = tested on: rats with a history of excessive alcohol drinking; test: Operant self-administration of alcohol after intra-DLS administration of BDNF; format: in vivo, rat; settings: intra-DLS BDNF 0.75 μg/side 3 hours before operant session; 2.5, 10 and 20% alcohol; rats after 5 weeks IA20%-2BC; vs vehicle (PBS)
Procedure: After 5 weeks of the intermittent access (IA) to 20% alcohol 2BC paradigm (IA20%-2BC), the rats were trained to self-administer alcohol. […] Rats were trained under a fixed ratio 3 schedule; i.e., rats had to press three times to receive one reward. Sessions lasted for the duration of 1 h at the beginning of the training and 30 min after the first 2 weeks. The number of presses on the levers and the number of alcohol deliveries were recorded using MED-PC IV software (Med-Associates).
as §2, with “cement.” for “cement. After 1 week of recovery, the alcohol-drinking procedure resumed, and subjects were habituated to the microinjection procedure with two sham injections (injectors were lowered but no infusion took place).”
To test the possibility that BDNF signaling in the DLS is disrupted after chronic excessive alcohol drinking, the ability of the neurotrophic factor to control alcohol self-administration in rats with a history of excessive alcohol drinking was tested. […] The self-administration of three alcohol concentrations was measured. […]

[8] = tested on: rats with history of moderate (10%) alcohol drinking; settings: exogenous BDNF into the DLS, shown previously; cited from earlier work

Row | Molecule | binge-like alcohol intake (p75NTR [1]; 2 h before 30 min alcohol binge-drinking session) | concurrent water intake (p75NTR [1]; 2 h before 30 min alcohol session) | sucrose intake (p75NTR [2]) | binge drinking of alcohol (p75NTR [3]; LM11A-31 150 mg/kg intraperitoneally 2 hours before session, IA20%-2BC 7 weeks, vs vehicle) | water intake (p75NTR [3]; LM11A-31 50-150 mg/kg intraperitoneally 2 hours before session, IA20%-2BC) | binge consumption of sucrose (p75NTR [4]) | corresponding water intake (p75NTR [4]) | binding between p75NTR and neurotrophins, including BDNF (p75NTR [5]) | p75NTR-mediated neuronal death [6] | phosphorylation of Jun kinase (Jun kinase) | amount of alcohol consumed [7] | number of alcohol deliveries [7] | operant alcohol self-administration [8]
1 | CC[C@H](C)[C@H](N)C(=O)NCCN1CCOCC1 [LM11A-31, Tris[(2S,3S)-2-amino-3-methyl-N-(2-morpholinoethyl)pentanamide]tetra(monohydrogensulfate), monosulfate] | significantly reduced | without changing | unaltered | significantly attenuated | without altering | did not alter | unaltered | disrupting the binding | blocks | decreases |  |  | 
2 | B1 |  |  |  |  |  |  |  |  |  |  | does not decrease; also recorded: did not decrease | does not decrease; also recorded: did not decrease | reduces
